Assay results reported in patent publication US20110105392A1 (ELI LILLY AND COMPANY, priority 2008, published 2011).

Columns and labels:
healthy volunteers = experiment: Euglycaemic glucose clamp after single SC dose in healthy volunteers; type: in vivo, human
Description: In all treatment periods, subjects undergo a euglycaemic clamp procedure for up to 24/36 hours following each insulin compound injection. Glucose infusion rates (GIR) are adjusted to maintain euglycaemia, with the documented GIR over time providing the GD measure of insulin action. The aim of the euglycaemic glucose clamp is to maintain euglycaemia through glucose infusion after the administration of a dose of an insulin compound. It is assumed that endogenous insulin secretion and hepatic glucose output are minimal and that any glucose that is translocated out of the glucose space (i.e., glucose metabolised) is the direct consequence of the administered exogenous insulin. The GIR in this case will be the glucodynamic (GD) measure of the insulin action over time. All glucose clamp studies are performed after an overnight fast of approximately 8 hours. On the morning of the study, a small catheter is placed into a vein of one arm, ideally in the ante-cubital fossa, for administration of 20% dextrose solution (buffered to near neutral pH) under the control of a volumetric pump. Another catheter is placed, ideally in the wrist or hand for venous glucose sampling. This area is heated with a warming device to approximately 55-60° C. for sampling arterialized venous blood. Blood samples are obtained at the bedside for immediate determination of whole blood glucose concentrations using an automated glucose oxidase technique. After basal blood sampling and a stabilization period of approximately 30 minutes, each subject receives a dose of insulin compound administered subcutaneously. The start of the subcutaneous injection of an insulin compound is defined as time zero. Following completion of dosing, in conjunction with frequent blood sampling for measurement of blood glucose, glucose is infused intravenously at a variable rate in order to maintain euglycaemia for up to 24 or 36 hours after insulin administration.
Blood sampling occurs approximately every 10 minutes for approximately 30 minutes prior to dosing and continued every 5-10 minutes for the first 2 hours after dosing (with the option to sample as frequently as every 2.5 minutes), and then reduced to 10-30 minute intervals up to the end of clamp.
During the glucose clamp, the glucose infusion rate is adjusted to maintain a pre-determined target blood glucose concentration for the individual subject. Preferably, the target concentration is close to the fasting blood glucose. The aim of the glucose clamp procedure is to maintain the blood glucose concentrations within +5% of the pre-dose target value, which is defined as 5 mg/dL below the mean fasting blood glucose. Thus, blood glucose concentrations are kept constant while the GIR varied. […]

[1] = calculated from published PK profiles; cited from earlier work

| Substance | time GD maintained (healthy volunteers; Part C, 0.5 mg/kg SC) | GIR profile versus peak GIR response for glargine (healthy volunteers; Part C, 0.5 mg/kg SC, glargine 0.5 U/kg) | within subject variability in the glucodynamics (healthy volunteers; humans) | duration of action (healthy volunteers; humans, versus insulin glargine (FIG. 2)) | peak-trough (PT) ratio [1] |
| --- | --- | --- | --- | --- | --- |
| LY: 20 kDa PEGylated insulin lispro, about 95% or more at B28, prepared essentially as in Example 9 | greater than 36 hours | exceeded the peak GIR response for glargine | less than 30% | longer than that of insulin glargine | – |
| insulin glargine | – | – | – | – | 1.2-2.6 |
